Read-outs that look alike come from different tables or passages of the source.
Columns and labels:
SARS-CoV-2 [1] = test: Inhibitory effect of ATRA on SARS-CoV-2 proliferation (nucleocapsid Western blotting and real-time PCR); format: cell-based; conditions: MOI 0.01, 24 hours
Method: In this Example, the inhibitory effect of SARS-CoV-2 proliferation by ATRA, a therapeutic agent for promyelocytic leukemia known to have inhibitory activity against Pin1. ATRA was added to VeroE6/TMPRSS2 cells to the final concentrations of 0, 0.5, 1, 5, 10, 20, and 30 μM, to which SARS-CoV-2 was infected at multiplicity of infection (MOI) of 0.01 after 2 hours, followed by recovering cell lysate after 24 hours and then detecting SARS-CoV-2 nucleocapsid, Pin1 and actin as an internal standard in the cells by Western blotting. SARS-CoV-2 proliferation was evaluated on the basis of the expression level of SARS-CoV-2 nucleocapsid in the cells.

SARS-CoV-2 [2] = format: cell-based; conditions: MOI 0.01, 24 hours after infection, real-time PCR
SARS-CoV-2 [3] = format: cell-based; conditions: MOI 0.01 to 0.02, 24 hours
SARS-CoV-2 [4] = test: Confirmation test of suppressing effect against SARS-CoV-2 proliferation (nucleocapsid Western blotting, VeroE6/TMPRSS2 cells); format: cell-based; conditions: 20 μM Pin1 inhibitor, VeroE6/TMPRSS2 cells, MOI 10, cell lysate 8 hours after infection, nucleocapsid band area vs no inhibitor; for inhibition at 20 µM: Severe acute respiratory syndrome coronavirus 2, VeroE6/TMPRSS2, 8 h, read-out: Inhibition Rate
SARS-CoV-2 [5] = test: Suppressing effect against SARS-CoV-2 proliferation at 5 or 10 μM (nucleocapsid Western blotting); format: cell-based; conditions: 5 μM, MOI 10, cell lysate 8 hours after infection
[6] = system: feline coronavirus (FCoV); conditions: cited from earlier work

**Q.** What does the source list for CC1=C(/C=C/C(C)=C/C=C/C(C)=C/C(=O)O)C(C)(C)CCC1 [ATRA]?
**A.** proliferation of SARS-CoV-2 (SARS-CoV-2 [1]; 5 μM or more): suppressed; proliferation of SARS-CoV-2 (SARS-CoV-2 [1]; 10 μM or more): substantially suppressed

**Q.** What does the source list for O=C(Nc1ccc(OCc2ccccc2)cc1C(=O)O)c1ccc2ccccc2c1 [H-77]?
**A.** proliferation of SARS-CoV-2 (SARS-CoV-2 RNA level in supernatant) (SARS-CoV-2 [2]; 5 μM): suppressed; proliferation of SARS-CoV-2 (SARS-CoV-2 RNA level in supernatant) (SARS-CoV-2 [2]; 7.5 μM): substantially suppressed; SARS-CoV-2 proliferation (SARS-CoV-2 [3]; 10 μM added 2 hours before the infection): suppressed; SARS-CoV-2 detection (SARS-CoV-2 [3]; 10 μM added 6 hours after the infection): slightly detected; SARS-CoV-2 proliferation (SARS-CoV-2 [3]; 10 μM added after the infection (2 hours, 6 hours)): suppressed; SARS-CoV-2 proliferation (SARS-CoV-2 [3]; 10 μM added at the time of the infection): suppressed; Inhibition Rate (SARS-CoV-2 [4]): 96%; inhibition rate of SARS-CoV-2 nucleocapsid (Western blotting) (SARS-CoV-2 [5]): high inhibition rate

**Q.** Which inhibition at 20 µM (SARS-CoV-2 [4]) does the source give for O=C(Cn1c2ccccc2c2ccccc21)Nc1ccc(OCc2ccc3ccccc3c2)cc1C(=O)O [H-537] here?
**A.** 96%

**Q.** And the “inhibition rate of SARS-CoV-2 nucleocapsid (Western blotting)” value (SARS-CoV-2 [5])?
**A.** high inhibition rate

**Q.** Which inhibition at 20 µM (SARS-CoV-2 [4]) does the source give for CC(C)(C)OC(=O)Nc1cc(NC(=O)n2c3ccccc3c3ccccc32)cc(C(=O)O)c1 [H-678] here?
**A.** 87%

**Q.** With COC(=O)c1cc(NC(=O)c2cccnc2)cc(NC(=O)n2c3ccccc3c3ccccc32)c1 [H-680] as the compound, how does the inhibition at 20 µM (SARS-CoV-2 [4]) read?
**A.** 53%

**Q.** For COC(=O)c1cc(NC(=O)c2ccc3ccccc3n2)cc(NC(=O)n2c3ccccc3c3ccccc32)c1 [H-684], which inhibition at 20 µM (SARS-CoV-2 [4]) is on record?
**A.** 66%

**Q.** With COC(=O)c1cc(NC(=O)c2cnc3ccccc3n2)cc(NC(=O)n2c3ccccc3c3ccccc32)c1 [H-685] as the compound, how does the inhibition at 20 µM (SARS-CoV-2 [4]) read?
**A.** 58%

**Q.** With O=C(O)c1cc(NC(=O)c2ccc3ccccc3n2)cc(NC(=O)n2c3ccccc3c3ccccc32)c1 [H-688] as the compound, how does the inhibition at 20 µM (SARS-CoV-2 [4]) read?
**A.** 98%

**Q.** What about the “inhibition rate of SARS-CoV-2 nucleocapsid (Western blotting)” value (SARS-CoV-2 [5]) of the same compound?
**A.** high inhibition rate

**Q.** With O=C(O)c1cc(NC(=O)c2cnc3ccccc3n2)cc(NC(=O)n2c3ccccc3c3ccccc32)c1 [H-691] as the compound, how does the inhibition at 20 µM (SARS-CoV-2 [4]) read?
**A.** 52%

**Q.** With O=C(O)c1cc(NC(=O)C2COc3ccccc3O2)cc(NC(=O)n2c3ccccc3c3ccccc32)c1 (stereo not shown) [H-693] as the compound, how does the inhibition at 20 µM (SARS-CoV-2 [4]) read?
**A.** 77%

**Q.** Which inhibition at 20 µM (SARS-CoV-2 [4]) does the source give for COC(=O)c1cc(NC(C)=O)cc(NC(=O)n2c3ccccc3c3ccccc32)c1 [H-696-2] here?
**A.** 98%

**Q.** With COC(=O)[C@H](CCCNC(=O)c1cccnc1)NC(=O)n1c2ccccc2c2ccccc21 [H-707] as the compound, how does the inhibition at 20 µM (SARS-CoV-2 [4]) read?
**A.** 55%

**Q.** Which inhibition at 20 µM (SARS-CoV-2 [4]) does the source give for O=C(NCCC[C@H](NC(=O)n1c2ccccc2c2ccccc21)C(=O)O)c1cccnc1 [H-708] here?
**A.** 62%

**Q.** For O=C(NCCC[C@H](NC(=O)C1c2ccccc2-c2ccccc21)C(=O)O)c1cccnc1 [H-715], which inhibition at 20 µM (SARS-CoV-2 [4]) is on record?
**A.** 63%

**Q.** With O=C(NCCC[C@H](NC(=O)n1c2ccccc2c2ccccc21)C(=O)O)c1ccc2ccccc2c1 [H-717] as the compound, how does the inhibition at 20 µM (SARS-CoV-2 [4]) read?
**A.** 87%

**Q.** For COC(=O)c1cc(N)cc(NC(=O)N(c2ccccc2)c2ccccc2)c1 [H-725-2], which inhibition at 20 µM (SARS-CoV-2 [4]) is on record?
**A.** 81%

**Q.** With Nc1cc(NC(=O)N(c2ccccc2)c2ccccc2)cc(C(=O)O)c1 [H-727] as the compound, how does the inhibition at 20 µM (SARS-CoV-2 [4]) read?
**A.** 50%

**Q.** With COC(=O)/C(=C/c1ccc2ccccc2c1)CC(=O)N1CCCc2ccccc21 [H-739] as the compound, how does the inhibition at 20 µM (SARS-CoV-2 [4]) read?
**A.** 51%

**Q.** Which inhibition at 20 µM (SARS-CoV-2 [4]) does the source give for O=C(O)/C(=C/c1ccc2ccccc2c1)CC(=O)N1CCc2ccccc2C1 [H-742] here?
**A.** 57%

**Q.** For O=C(O)/C(=C/c1ccc2ccccc2c1)CC(=O)N1CCCc2ccccc21 [H-743], which inhibition at 20 µM (SARS-CoV-2 [4]) is on record?
**A.** 59%

**Q.** Which “Inhibition Rate” value (SARS-CoV-2 [4]) does the source give for Nc1cc(NC(=O)C2c3ccccc3-c3ccccc32)cc(C(=O)OCc2ccccc2)c1 [H-755-2] here?
**A.** 75%

**Q.** For Nc1cc(NC(=O)C2c3ccccc3-c3ccccc32)cc(C(=O)OCc2ccccc2)c1 [H-755], which inhibition at 20 µM (SARS-CoV-2 [4]) is on record?
**A.** 78%

**Q.** For COC(=O)c1cc(NC(=O)COc2ccccn2)cc(NC(=O)n2c3ccccc3c3ccccc32)c1 [H-762], which inhibition at 20 µM (SARS-CoV-2 [4]) is on record?
**A.** 83%

**Q.** Which inhibition at 20 µM (SARS-CoV-2 [4]) does the source give for O=C(COc1ccccn1)Nc1cc(NC(=O)n2c3ccccc3c3ccccc32)cc(C(=O)O)c1 [H-763] here?
**A.** 97%

**Q.** With O=C(Nc1ccc(OCc2ccc3ccccc3c2)cc1C(=O)O)c1ccc2c(c1)OCCO2 [H-787] as the compound, how does the inhibition at 20 µM (SARS-CoV-2 [4]) read?
**A.** 97%

**Q.** Which inhibition at 20 µM (SARS-CoV-2 [4]) does the source give for O=C(Nc1ccc(OCc2ccccc2)cc1C(=O)O)c1ccc2c(c1)OCCO2 [H-800] here?
**A.** 91%

**Q.** With COC(=O)c1cc(N)cc(NC(=O)CN(c2ccccc2)c2ccccc2)c1 [H-816] as the compound, how does the inhibition at 20 µM (SARS-CoV-2 [4]) read?
**A.** 63%

**Q.** For Nc1cc(NC(=O)CN(c2ccccc2)c2ccccc2)cc(C(=O)O)c1 [H-817], which inhibition at 20 µM (SARS-CoV-2 [4]) is on record?
**A.** 61%

**Q.** Which inhibition at 20 µM (SARS-CoV-2 [4]) does the source give for O=C(CN(c1ccccc1)c1ccccc1)Nc1cc(NC(=O)c2ccc3ccccc3c2)cc(C(=O)O)c1 [H-819] here?
**A.** 95%

**Q.** With O=C(CN(c1ccccc1)c1ccccc1)Nc1cc(NC(=O)c2ccc3ccccc3n2)cc(C(=O)O)c1 [H-821] as the compound, how does the inhibition at 20 µM (SARS-CoV-2 [4]) read?
**A.** 95%

**Q.** For COC(=O)c1cc(OCc2ccncc2)ccc1NC(=O)c1cccnc1 [H-832], which inhibition at 20 µM (SARS-CoV-2 [4]) is on record?
**A.** 65%

**Q.** Which inhibition at 20 µM (SARS-CoV-2 [4]) does the source give for O=C(Cn1c2ccccc2c2ccccc21)Nc1ccc(OCc2ccccc2)cc1C(=O)O [H-835] here?
**A.** 99%

**Q.** With O=C(Cc1cccc2ccccc12)Nc1ccc(OCc2ccccc2)cc1C(=O)O [H-839] as the compound, how does the inhibition at 20 µM (SARS-CoV-2 [4]) read?
**A.** 83%

**Q.** Which inhibition at 20 µM (SARS-CoV-2 [4]) does the source give for COC(=O)[C@@H](Cc1ccc2ccccc2c1)NC(=O)c1ccc(CNC(=O)OC(C)(C)C)cc1 [H-848] here?
**A.** 53%

**Q.** For CC(C)(C)OC(=O)NCc1ccc(C(=O)N[C@H](Cc2ccc3ccccc3c2)C(=O)O)cc1 [H-849], which inhibition at 20 µM (SARS-CoV-2 [4]) is on record?
**A.** 50%

**Q.** Which inhibition at 20 µM (SARS-CoV-2 [4]) does the source give for NCc1ccc(C(=O)N[C@H](Cc2ccc3ccccc3c2)C(=O)O)cc1 [H-851] here?
**A.** 59%

**Q.** With O=C(O)[C@@H](Cc1ccc2ccccc2c1)NC(=O)n1c2ccccc2c2ccccc21 [H-853] as the compound, how does the inhibition at 20 µM (SARS-CoV-2 [4]) read?
**A.** 99%

**Q.** Which inhibition at 20 µM (SARS-CoV-2 [4]) does the source give for COC(=O)c1cc(NC(=O)CC2c3ccccc3-c3ccccc32)cc(NC(=O)c2ccc3ccccc3c2)c1 [H-857] here?
**A.** 55%

**Q.** Which inhibition at 20 µM (SARS-CoV-2 [4]) does the source give for COC(=O)c1cc(NC(=O)CC2c3ccccc3-c3ccccc32)cc(NC(=O)c2ccc3c(c2)OCCO3)c1 [H-859] here?
**A.** 89%

**Q.** With COC(=O)c1cc(NC(=O)c2ccc(CN)cc2)cc(NC(=O)n2c3ccccc3c3ccccc32)c1 [H-870] as the compound, how does the inhibition at 20 µM (SARS-CoV-2 [4]) read?
**A.** 97%

**Q.** Which inhibition at 20 µM (SARS-CoV-2 [4]) does the source give for NCc1ccc(C(=O)Nc2cc(NC(=O)n3c4ccccc4c4ccccc43)cc(C(=O)O)c2)cc1 [H-871] here?
**A.** 61%

**Q.** Which inhibition at 20 µM (SARS-CoV-2 [4]) does the source give for COC(=O)c1cc(NC(=O)OC(C)(C)C)cc(NC(=O)n2ccc3ccccc32)c1 [H-872] here?
**A.** 78%

**Q.** For CC(C)(C)OC(=O)Nc1cc(NC(=O)n2ccc3ccccc32)cc(C(=O)O)c1 [H-873], which inhibition at 20 µM (SARS-CoV-2 [4]) is on record?
**A.** 67%

**Q.** For O=C(O)c1cc(NC(=O)c2ccc3c(c2)OCCO3)cc(NC(=O)n2ccc3ccccc32)c1 [H-876], which inhibition at 20 µM (SARS-CoV-2 [4]) is on record?
**A.** 69%

**Q.** With O=C(O)c1cc(NC(=O)c2ccc3ccccc3c2)cc(NC(=O)n2ccc3ccccc32)c1 [H-878] as the compound, how does the inhibition at 20 µM (SARS-CoV-2 [4]) read?
**A.** 56%

**Q.** For COC(=O)c1cc(NC(=O)c2ccc(CN)cc2)cc(NC(=O)n2ccc3ccccc32)c1 [H-881], which inhibition at 20 µM (SARS-CoV-2 [4]) is on record?
**A.** 88%

**Q.** Which inhibition at 20 µM (SARS-CoV-2 [4]) does the source give for COC(=O)c1cc(NC(=O)c2ccc(CN(C)C)cc2)cc(NC(=O)n2c3ccccc3c3ccccc32)c1 [H-890] here?
**A.** 54%

**Q.** For S=C(SC(=S)N1CCCCC1)N1CCCCC1 [dipentamethylenethiuram monosulfide], which “replication of feline coronavirus (FCoV)” value [6] is on record?
**A.** inhibited

From patent publication US20240024266A1, “Therapeutic Agent or Prophylactic Agent for COVID-19” (priority 2020, published 2024)
